Assay results reported in patent US20260265299A1, “SYNTHESIS OF BICYCLE TOXIN CONJUGATES, AND INTERMEDIATES THEREOF” (priority 2023, published 2026).
Starred links: 1 amine or outer side, 2 acyl side, 3 side chain; linkers in the order of their positions; H or OH if unused. Non-standard residues stand in square brackets, D forms with d. Residues, ends and D or L forms follow the SMILES beside them. ξ: configuration not given here. *: point of attachment. Dolaproine = CO[C@@H]([C@@H]1CCCN1)[C@@H](C)C(=O)O; ξDil = CC[C@H](C)C([C@@H](CC(=O)[*:2])OC)N(C)[*:1]; PABC = O=C(OCc1ccc(N[*:1])cc1)[*:2]; Glutaryl = O=C(CCCC(=O)[*:2])[*:1]; X1 = C[C@@H](N*)[C@@H](O)c1ccccc1; Cit = NC(=O)NCCC[C@H](N)C(=O)O; NMeV = CN[C@H](C(=O)O)C(C)C

Legend:
Assay type in all cases: physicochemical
[1] = Solubility of gvcMMAE in different solvents (assay in mother liquor); conditions: for Assay in ML (w/w %): 20-30° C., 0.5 h, free acid state
Source text: 3.3.6. Study the Solubility of gvcMMAE in Different Solvents (Table 10)
Solubility of gvcMMAE (free acid state) in different solvents (THF, DCM, MTBE, n-Heptane, iPrOAc, 1,4-dioxane) were investigated.

[2] = Stress test of gvcMMAE at different drying temperature (HPLC); conditions: for HPLC/area % gvcMMAE: dry
Description: 3.3.13. Stress Test of gvcMMAE at Different Drying Temperature (Table 22 and 23)
Stress test of gvcMMAE at different drying temperatures was done. According to the result listed below, gvcMMAE was stable at 40° C. for 3 days.

[3] = DVS test (hygroscopicity)
Description: (Uptake 3.6% water on sorption curve between 40% RH and 80% RH, at 25° C.).

[4] = Moisture absorption experiment at 60% RH; conditions: 3 days
Description: 100 mg of gvcMMAE was stood at 60% RH condition to do a moisture absorption experiment. The solid state had no change (The weight changed to 103 mg) after 3 days.

For CC[C@H](C)C([C@@H](CC(=O)N1CCC[C@H]1[C@H](OC)[C@@H](C)C(=O)N[C@H](C)[C@@H](O)c1ccccc1)OC)N(C)C(=O)[C@@H](NC(=O)[C@H](C(C)C)N(C)C(=O)OCc1ccc(NC(=O)[C@H](CCCNC(N)=O)NC(=O)[C@@H](NC(=O)CCCC(=O)O)C(C)C)cc1)C(C)C (stereo partly drawn) [gvcMMAE, Glutaryl-Val-Cit-PAB-MMAE] (Glutaryl-V[Cit][PABC][NMeV]V[ξDil][Dolaproine]-X1), the “Assay in ML (w/w %)” value ([1]; 1,4-dioxane 20 v) was 0.22 w/w %, the “Assay in ML (w/w %)” value ([1]; DCM 20 v) was 0.00 w/w % and the “Assay in ML (w/w %)” value ([1]; MTBE 20 v) was 0.00 w/w %. The “Assay in ML (w/w %)” value ([1]; N-heptane 20 v) was 0.00 w/w %, the “Assay in ML (w/w %)” value ([1]; THF 20 v) was 0.47 w/w % and the “Solubility in solvents (in words)” value ([1]; THF, DCM, MTBE, n-Heptane, iPrOAc, 1,4-dioxane) was “insoluble in most solvents”. For the same compound, the “Assay in ML (w/w %)” value ([1]; iPrOAc 20 v) was 0.00 w/w %, the “HPLC/area % gvcMMAE” value ([2]; 20° C., 3 days) was 98.62 area % and the “HPLC/area % gvcMMAE” value ([2]; 30° C., 3 days) was 98.65 area %. The “Stability at drying temperature (in words)” value ([2]; 40° C. for 3 days) was “stable”, the “HPLC/area % gvcMMAE” value ([2]; 40° C., 3 days) was 98.61 area % and the “HPLC/area % gvcMMAE” value ([2]; 50° C., 3 days) was 98.52 area %. For the same compound, the “HPLC/area % gvcMMAE” value ([2]; before stress test) was 98.54 area %, the “Hygroscopicity (DVS)” value ([3]; 80% RH at 25° C.) was “hygroscopic” and the “Water uptake on sorption curve” value ([3]; between 40% RH and 80% RH, at 25° C.) was 3.6%. For the same compound, the “Solid state after moisture absorption” value ([4]; 100 mg) was “no change” and the “Weight after moisture absorption” value ([4]; starting from 100 mg) was 103 mg.
